Measured values as given in US9156860B2, “Boron-containing small molecules” (Anacor Pharmaceuticals, Inc., priority 2011, dated 2015).
Like-named read-outs stand apart in the source and are kept apart here.

Test system: Lone star tick larvae (Amblyomma americanum)
Experiment: Larval immersion microassay against larval-stage Lone star ticks
Conditions: Amblyomma americanum, read-out: activity (percent larval mortality)
Description: The larval immersion microassay was conducted as described in detail in White, et al., J. Med. Entomol. […] Compounds of the invention were formulated in dimethylsulfoxide (DMSO) to prepare a stock solution at a concentration of at least 10 mM. […] Approximately 30-50 Lone star tick larvae (Amblyomma americanum) were submerged into each well containing compounds. After a 30 minute immersion period, larvae were removed with a wide-bore pipette tip in 0.05 ml of fluid, dispensed into a commercial paper tissue biopsy bag which was sealed at the top with a plastic dialysis clip, inverted and allowed to air dry for 60 minutes. Bags containing larvae were then incubated at approximately 27 degrees Celsius and >90% relative humidity. After 24 hours, bags were opened, live and dead larvae were counted and percent larval mortality was calculated.
7 contains one chiral center, and is therefore a racemic mixture comprised of approximately 50% R- and 50% S-enantiomer. In vitro and surrogate animal (rat) studies were conducted to evaluate the biological activity of the R- and S-enantiomers of 7. For the in vitro study, larvae of the Lone star tick (Amblyomma americanum) were exposed to 17 (S-enantiomer) and 18 (R-enantiomer) using the larval immersion microassay at a concentration of no greater than 0.3 mM. Following exposure, larvae were removed, transferred to a tissue biopsy bag and incubated at approximately 27 degrees Celsius and >90% relative humidity. After 24 hours, biopsy bags were opened and the numbers of live and dead larvae were determined.

[1] = concentration of no greater than 0.3 mM, 30 minute immersion, counted after 24 hours

Row | SMILES | mortality at 300 µM (24 h) [%] | mortality at 300 µM [1] [%]
1 | Cc1c(Cl)cc(C2(C(F)(F)F)CC(c3ccc4c(c3)C(C)(C)OB4O)=NO2)cc1Cl (stereo not shown) [Compound 9, 5-(5-(3,5-Dichloro-4-methylphenyl)-5-(trifluoromethyl)-4,5-dihydroisoxazol-3-yl)-3,3-dimethylbenzo[c][1,2]oxaborol-1(3H)-ol] | ≥ 80 | 
2 | CC1(C)OB(O)c2ccc(C3=NOC(c4cc(Br)cc(Br)c4)(C(F)(F)F)C3)cc21 (stereo not shown) [Compound 5, 5-(5-(3,5-Dibromophenyl)-5-(trifluoromethyl)-4,5-dihydroisoxazol-3-yl)-3,3-dimethyl-benzo[c][1,2]oxaborol-1(3H)-ol] |  | ≥ 80
3 | CC1(C)OB(O)c2ccc(C3=NOC(c4cc(Cl)cc(Cl)c4)(C(F)(F)F)C3)cc21 (stereo not shown) [Compound 2, 5-(5-(3,5-Dichlorophenyl)-5-(trifluoromethyl)-4,5-dihydroisoxazol-3-yl)-3,3-dimethyl-benzo[c][1,2]oxaborol-1(3H)-ol] | ≥ 80 | 
4 | OB1OCc2cc(C3=NOC(c4cc(Cl)cc(Cl)c4)(C(F)(F)F)C3)ccc21 (stereo not shown) [Compound 1, 5-(5-(3,5-Dichlorophenyl)-5-(trifluoromethyl)-4,5-dihydroisoxazol-3-yl)benzo[c][1,2]oxaborol-1(3H)-ol] | ≥ 80 | 
5 | CC1(C)OB(O)c2ccc(C3=NOC(c4cc(F)c(F)c(Cl)c4)(C(F)(F)F)C3)cc21 (stereo not shown) [Compound 25, 5-(5-(3-Chloro-4,5-difluorophenyl)-5-(trifluoromethyl)-4,5-dihydroisoxazol-3-yl)-3,3-dimethylbenzo[c][1,2]oxaborol-1(3H)-ol] |  | ≥ 80
6 | CC1(C)OB(O)c2ccc(C3=NOC(c4cc(C(F)(F)F)cc(C(F)(F)F)c4)(C(F)(F)F)C3)cc21 (stereo not shown) [Compound 14, 5-(5-(3,5-Bis(trifluoromethyl)phenyl)-5-(trifluoromethyl)-4,5-dihydroisoxazol-3-yl)-3,3-dimethylbenzo[c][1,2]oxaborol-1(3H)-ol] | ≥ 80 | 
7 | CC1(C)OB(O)c2ccc(C3=NO[C@@](c4cc(Cl)cc(Cl)c4)(C(F)(F)F)C3)cc21 [Compound 3, (S)-5-(5-(3,5-dichlorophenyl)-5-(trifluoromethyl)-4,5-dihydroisoxazol-3-yl)-3,3-dimethyl benzo[c][1,2]oxaborol-1(3H)-ol] | ≥ 80 | 
8 | CC1(C)OB(O)c2ccc(C3=NOC(c4cc(F)c(Cl)c(F)c4)(C(F)(F)F)C3)cc21 (stereo not shown) [Compound 30, 5-(5-(4-Chloro-3,5-difluorophenyl)-5-(trifluoromethyl)-4,5-dihydroisoxazol-3-yl)-3,3-dimethylbenzo[c][1,2]oxaborol-1(3H)-ol] |  | ≥ 80
9 | CC1(C)OB(O)c2ccc(C3=NOC(c4cc(Br)c(F)c(Br)c4)(C(F)(F)F)C3)cc21 (stereo not shown) [Compound 32, 5-(5-(3,5-Dibromo-4-fluorophenyl)-5-(trifluoromethyl)-4,5-dihydroisoxazol-3-yl)-3,3-dimethylbenzo[c][1,2]oxaborol-1(3H)-ol] |  | ≥ 80
10 | CC1(C)OB(O)c2ccc(C3=NOC(c4cc(Cl)c(C(F)F)c(Cl)c4)(C(F)(F)F)C3)cc21 (stereo not shown) [Compound 11, 5-(5-(3,5-Dichloro-4-(difluoromethyl)phenyl)-5-(trifluoromethyl)-4,5-dihydroisoxazol-3-yl)-3,3-dimethyl-benzo[c][1,2]oxaborol-1(3H)-ol] | ≥ 80 | 
11 | CC1(C)OB(O)c2cc(F)c(C3=NOC(c4cc(Cl)c(Cl)c(Cl)c4)(C(F)(F)F)C3)cc21 (stereo not shown) [Compound 42, 6-Fluoro-3,3-dimethyl-5-(5-(3,4,5-trichlorophenyl)-5-(trifluoromethyl)-4,5-dihydroisoxazol-3-yl)benzo[c][1,2]oxaborol-1(3H)-ol] | ≥ 80 | 
12 | CC1(C)OB(O)c2ccc(C3=NOC(c4ccc(F)c(Cl)c4)(C(F)(F)F)C3)cc21 (stereo not shown) [Compound 19, 5-(5-(3-Chloro-4-fluorophenyl)-5-(trifluoromethyl)-4,5-dihydroisoxazol-3-yl)-3,3-dimethylbenzo[c][1,2]oxaborol-1(3H)-ol] |  | ≥ 80
13 | CC1(C)OB(O)c2ccc(C3=NOC(c4cc(Cl)c(F)c(Cl)c4F)(C(F)(F)F)C3)cc21 (stereo not shown) [Compound 35] | ≥ 80 | 
14 | CC1(C)OB(O)c2ccc(C3=NOC(c4ccc(F)c(C(F)(F)F)c4)(C(F)(F)F)C3)cc21 (stereo not shown) [Compound 24, 5-(5-(4-Fluoro-3-(trifluoromethyl)phenyl)-5-(trifluoromethyl)-4,5-dihydroisoxazol-3-yl)-3,3-dimethylbenzo[c][1,2]oxaborol-1(3H)-ol] |  | ≥ 80
15 | CC1(C)OB(O)c2ccc(C3=NOC(c4cc(Br)c(Cl)c(Br)c4)(C(F)(F)F)C3)cc21 (stereo not shown) [Compound 27, 5-(5-(3,5-Dibromo-4-chlorophenyl)-5-(trifluoromethyl)-4,5-dihydroisoxazol-3-yl)-3,3-dimethylbenzo[c][1,2]oxaborol-1(3H)-ol] |  | ≥ 80
16 | CC1(C)OB(O)c2cc(F)c(C3=NOC(c4cc(Cl)cc(Cl)c4)(C(F)(F)F)C3)cc21 (stereo not shown) [Compound 41] | ≥ 80 | 
17 | COc1c(Cl)cc(C2(C(F)(F)F)CC(c3ccc4c(c3)C(C)(C)OB4O)=NO2)cc1Cl (stereo not shown) [Compound 22, 5-(5-(3,5-Dichloro-4-methoxyphenyl)-5-(trifluoromethyl)-4,5-dihydroisoxazol-3-yl)-3,3-dimethylbenzo[c][1,2]oxaborol-1(3H)-ol] | ≥ 80 | 
18 | CC1(C)OB(O)c2ccc(C3=NOC(c4ccc(Cl)c(Cl)c4)(C(F)(F)F)C3)cc21 (stereo not shown) [Compound 23, 5-(5-(3,4-Dichlorophenyl)-5-(trifluoromethyl)-4,5-dihydroisoxazol-3-yl)-3,3-dimethyl-benzo[c][1,2]oxaborol-1(3H)-ol] |  | ≥ 80
19 | CC1(C)OB(O)c2ccc(C3=NOC(c4cc(Cl)c(Br)c(Cl)c4)(C(F)(F)F)C3)cc21 (stereo not shown) [Compound 21, 5-(5-(4-Bromo-3,5-dichlorophenyl)-5-(trifluoromethyl)-4,5-dihydroisoxazol-3-yl)-3,3-dimethylbenzo[c][1,2]oxaborol-1(3H)-ol] | ≥ 80 | 
20 | CC1(C)OB(O)c2ccc(C3=NOC(c4cc(Cl)c(Cl)c(Cl)c4Cl)(C(F)(F)F)C3)cc21 (stereo not shown) [Compound 34, 3,3-Dimethyl-5-(5-(2,3,4,5-tetrachlorophenyl)-5-(trifluoromethyl)-4,5-dihydroisoxazol-3-yl)benzo[c][1,2]oxaborol-1(3H)-ol] | ≥ 80 | 
21 | CC1(C)OB(O)c2ccc(C3=NOC(c4cc(Cl)c(C(F)(F)F)c(Cl)c4)(C(F)(F)F)C3)cc21 (stereo not shown) [Compound 10, 5-(5-(3,5-Dichloro-4-(trifluoromethyl)phenyl)-5-(trifluoromethyl)-4,5-dihydroisoxazol-3-yl)-3,3-dimethyl-benzo[c][1,2]oxaborol-1(3H)-ol] | ≥ 80 | 
22 | CC1(C)OB(O)c2ccc(C3=NOC(c4cc(F)c(Cl)c(Cl)c4)(C(F)(F)F)C3)cc21 (stereo not shown) [Compound 26, 5-(5-(3,4-Dichloro-5-fluorophenyl)-5-(trifluoromethyl)-4,5-dihydroisoxazol-3-yl)-3,3-dimethylbenzo[c][1,2]oxaborol-1(3H)-ol] |  | ≥ 80
23 | CC1(C)OB(O)c2ccc(C3=NOC(c4cc(Cl)c(OC(F)(F)F)c(Cl)c4)(C(F)(F)F)C3)cc21 (stereo not shown) [Compound 12, 5-(5-(3,5-Dichloro-4-(trifluoromethoxy)phenyl)-5-(trifluoromethyl)-4,5-dihydro-isoxazol-3-yl)-3,3-dimethylbenzo[c][1,2]oxaborol-1(3H)-ol] | ≥ 80 | 
24 | CC1(C)OB(O)c2ccc(C3=NOC(c4cc(Cl)cc(C(F)(F)F)c4)(C(F)(F)F)C3)cc21 (stereo not shown) [Compound 6] | ≥ 80 | 
25 | CC1(C)OB(O)c2ccc(C3=NO[C@@](c4cc(Cl)c(F)c(Cl)c4)(C(F)(F)F)C3)cc21 [Compound 28, (S)-5-(5-(3,5-Dichloro-4-fluorophenyl)-5-(trifluoromethyl)-4,5-dihydroisoxazol-3-yl)-3,3-dimethylbenzo[c][1,2]oxaborol-1(3H)-ol] | ≥ 80 | 
